Each structure is given as a SMILES string.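 All cell lines were grown in 96-well plates and treated with compound for 48 hours. TGI: total growth inhibition.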

Common to all, as to test: NCI anticancer screen, dose series, 48 h
In assay [1] the test system is BT-549 breast.
The test system of assay [2] is MOLT-4 leukemia.
Assay [3] has as its system HOP-62 NSCLC.
For assay [4], the system named is NCI-H226 lung.
The test system of assay [5] is SK-MEL-2 melanoma.
Assay [6] has as its system UACC-62 melanoma.
Assay [7] deals with CAKI-1 renal.
Assay [8] relates to SNB-75 CNS.
Assay [9] concerns A498 renal.
Assay [10] has as its system UO-31 renal.
The test system of assay [11] is RXF 393 renal.
The subject of assay [12] is TK-10 renal.
The test system of assay [13] is M14 melanoma.
The test system of assay [14] is MDA-N.
The test system of assay [15] is SK-MEL-28 melanoma.
In assay [16] the test system is SF-539 CNS.
The subject of assay [17] is HS 578T breast.
In assay [18] the test system is HCT-116 colon.
Assay [19] has as its system SK-MEL-5 melanoma.
The test system of assay [20] is HCT-15 colon.

With `O=C(Oc1cccnc1)c1cc2cc(CCl)ccc2oc1=O`, the TGI in assay [1] is 53.7 µM; in assay [2], 61.4 µM; in assay [3], above 100 µM; in assay [4], above 100 µM; in assay [5], 54 µM; in assay [6], 36.9 µM. In addition, the TGI is 35 µM in [7]; 79.7 µM in [8]; above 100 µM in assay [9]; 44.5 µM in [10]; 31.5 µM in [11]; 50.8 µM in assay [12]. The TGI in assay [13] is 53.1 µM; in [14], above 100 µM; in assay [15], above 100 µM; in assay [16] it was above 100 µM; in assay [17], 55.1 µM; in [18] it was 38.7 µM. The TGI was above 100 µM in assay [19] and 58.5 µM in assay [20].
For `CCC(C)C1NC(=O)C(NC(=O)c2c3[nH]c4c(C(=O)NC5C(=O)NC(C(C)CC)C(=O)N6CCCC6C(=O)N(C)CC(=O)N(C)C(C(C)C)C(=O)OC5C)ccc(C)c4oc-3c(C)c(=O)c2=O)C(C)OC(=O)C(C(C)C)N(C)C(=O)CN(C)C(=O)C2CCCN2C1=O` (stereo not drawn), the TGI is above 72.4 µM in assay [1]; above 39.8 µM in [2]; above 100 µM in [3]; above 51.6 µM in [4]; 17.2 µM in assay [5]; 17.6 µM in [6]. For the same compound, the TGI in assay [7] is above 91.2 µM; in assay [8] it was 32.9 µM; in assay [9], 39.4 µM; in [10], above 77 µM; in [11], 25 µM; in assay [12], 98.4 µM. Also, the TGI in assay [13] came out at 40.5 µM; in assay [14], 33 µM; in assay [15] it was 76.3 µM; in assay [16], 37.4 µM; in assay [17] it was 37.8 µM; in [18], 40.4 µM. In addition, the TGI in [19] and in assay [20] was above 100 µM in each case.
For the compound `CCOC(=O)C1(C/C=C/CBr)CCc2ccccc2C1=O` (stereo not drawn), the TGI in assay [1] was 44 µM; in assay [2] it was above 100 µM; in [3] it was 30.3 µM; in [4], 27.7 µM; in [5], 37.7 µM; in assay [6], 28.7 µM. For the same compound, the TGI in assay [7] came out at 28.8 µM; in [8], 22.6 µM; in assay [9] it was 38 µM; in assay [10], 30.9 µM; in assay [11] it was 18.4 µM; in assay [12], 35.2 µM. Also, the TGI in [13] was 28.2 µM; in [14] it was 30.3 µM; in assay [15], 35.6 µM; in assay [16], 36.2 µM; in assay [17], 94.4 µM; in assay [18] it was 26.2 µM. Moreover, the results for the TGI in assay [19] and in assay [20] were 25.2 µM and 47.5 µM, respectively.
In the case of `CC(=O)O/C(=C1\C[C@H]2[C@@H]3CC=C4C[C@@H](OC(C)=O)CC[C@]4(C)[C@H]3CC[C@]2(C)C1=O)C(F)(F)F`, the TGI in assay [1] worked out at 34.7 µM; in [2], 7.37 µM; in [3], 32.8 µM; in [4], 40.7 µM; in assay [5], 17.2 µM; in assay [6] it was 20.2 µM. In addition, the TGI in assay [7] came out at 24.3 µM; in [8], 47.4 µM; in assay [9], 45.1 µM; in assay [10], 32.1 µM; in assay [11], 15 µM; in assay [12], 32.4 µM. Moreover, the TGI was 15.2 µM in assay [13]; 14.9 µM in assay [14]; 31.9 µM in assay [15]; 15.2 µM in [16]; 20.8 µM in [17]; 18.8 µM in assay [18]. For the same compound, the TGI in assay [19] was determined as 14.4 µM; in [20], 17.6 µM.
For `O=C(O/C=C\OC1CCCC1(c1ccccc1)c1ccccc1)c1ccccc1` (stereo not drawn), the TGI in assay [1] was 4.58 µM; in [2], above 31 µM; in [3], 36.9 µM; in [4] it was 43.2 µM; in assay [5], 15 µM; in assay [6], 16.8 µM. Further, the TGI in assay [7] was above 63.6 µM; in [8], 20.9 µM; in assay [9], 64.3 µM; in [10], 3.84 µM; in assay [11] it was 15 µM; in assay [12] it was 17.9 µM. The TGI in [13] was 9.08 µM; in assay [14] it was 9.32 µM; in [15], 18.3 µM; in [16], 13.5 µM; in assay [17] it was 23.6 µM; in [18], 6.52 µM. Besides, the TGI in [19] is 23.8 µM; in [20], 5.72 µM.
For `CC(=O)Oc1ccc2c(c1)c1c(=O)oc(C)nc1n2Cc1ccccc1`, the TGI was above 66.3 µM in [1]; above 100 µM in assay [2]; above 100 µM in assay [3]; above 69.7 µM in assay [4]; above 71.6 µM in [5]; above 31.6 µM in [6]. In addition, the TGI is 34.4 µM in assay [7]; above 87.7 µM in [8]; above 74.6 µM in assay [9]; 13.8 µM in assay [10]; 68.5 µM in [11]; above 91.2 µM in [12]. Moreover, the TGI is above 100 µM in assay [13]; above 88.1 µM in assay [14]; above 100 µM in assay [15]; above 100 µM in [16]; above 100 µM in assay [17]; above 100 µM in assay [18]. Further, the TGI in [19] and in [20] was above 100 µM throughout.
With `CN(C)c1ccc(/C=N\NC(=O)Nc2cccc3ccccc23)cc1`, the TGI in assay [1] was 72.4 µM; in [2], above 100 µM; in assay [3], 33.1 µM; in assay [4], 9.06 µM; in assay [5], 35.7 µM; in assay [7], 27.9 µM. The TGI in [8] was 32.3 µM; in assay [9] it was 64.8 µM; in assay [10] it was 51.6 µM; in assay [11] it was above 100 µM; in assay [12], 36.7 µM; in [13], above 100 µM. For the same compound, the TGI in assay [14] is 12 µM; in [15] it was above 100 µM; in assay [16], 21.5 µM; in assay [17], 23.1 µM; in assay [18], 65.2 µM; in assay [19], 18.6 µM. In assay [20], this compound came in with a TGI of 7.23 µM.
Turning to `O=C1c2cccc3cccc(c23)C(=O)N1CCCNCCCNCCCCNCCCNCCCN1C(=O)c2cccc3cccc(c23)C1=O`, the TGI in assay [1] is 15.1 µM; in assay [2] it was 2.84 µM; in [3] it was 27.3 µM; in [4], 28.6 µM; in assay [5], 16.8 µM; in assay [6] it was 12.3 µM. In addition, the TGI in assay [7] was 29.6 µM; in [8], 12.5 µM; in assay [9], 25.2 µM; in assay [10] it was 30.4 µM; in assay [11] it was 19.1 µM; in [12] it was 25 µM. Also, the TGI in assay [13] stood at 16.2 µM; in assay [14], 6.83 µM; in assay [15], 9 µM; in assay [16], 23.7 µM; in assay [17], 13.3 µM; in assay [18], 8.17 µM. Besides, the TGI in [19] was determined as 41.1 µM; in [20], 30.9 µM.
In the case of `COc1cccc2cc(C(=O)O)c(=O)oc12`, the TGI in assay [1], in assay [2], in assay [3], in assay [4], in [5] and in assay [6] was above 100 µM throughout. Besides, the TGI in assay [7], in assay [8], in [9], in assay [10], in assay [11] and in assay [12] was above 100 µM each time. In addition, the TGI in [13], in assay [14], in assay [15], in assay [16], in assay [17] and in [18] was above 100 µM in each case. The TGI in assay [19] and in [20] was above 100 µM each time.
Consider `CCCCCCOc1ccc(Nc2c(O)c3c(c(O)c2Cl)C(=O)C=CC3=O)cc1`, for which the TGI was above 6.01 µM in [1]; above 6.98 µM in assay [2]; above 8.71 µM in assay [3]; above 10 µM in assay [4]; 7.05 µM in [5]; 7.99 µM in assay [6]. Besides, the TGI in [7] is above 10 µM; in assay [8] it was above 10 µM; in assay [9] it was above 10 µM; in assay [10], above 5.81 µM; in [11], 4.41 µM; in [12] it was above 10 µM. Also, the TGI in assay [13] is above 6.68 µM; in [14], above 6.89 µM; in [15] it was 3.82 µM; in assay [16] it was above 6.06 µM; in assay [17], 8.39 µM; in [18], above 6.12 µM. Besides, the TGI in assay [19] was 3.02 µM; in [20] it was 3.68 µM.
Regarding `Nc1nc(Cl)c(N)c(NCC2(CO)CCCC2)n1`, the TGI is above 100 µM in assay [1]; above 100 µM in assay [2]; above 100 µM in assay [3]; above 100 µM in assay [4]; above 100 µM in [5]; 7.44 µM in assay [6]. Also, the TGI in [7], in assay [8], in assay [9], in [10], in assay [11] and in assay [12] was above 100 µM throughout. Besides, the TGI in assay [14], in assay [15], in [16], in assay [17], in assay [18] and in assay [19] was above 100 µM each time. Besides, the TGI in assay [20] was above 100 µM.
Turning to `CC(C(=O)OCc1ccccc1)(c1ccco1)N1C(=O)OC(c2ccccc2)C1c1ccccc1` (stereo not drawn), the TGI in [1], in [2], in assay [3], in assay [4], in assay [5] and in assay [6] was above 100 µM in each case. Moreover, the TGI in assay [7], in [8], in [9], in assay [10], in assay [11] and in assay [12] was above 100 µM throughout. Besides, the TGI in [13], in assay [14], in assay [15], in [16], in assay [17] and in [18] was above 100 µM each time. The TGI in assay [19] and in [20] was above 100 µM in each case.
For the compound `Fc1ccc(C(=C2CCN(CCc3ccc4[nH]c(=S)[nH]c4c3)CC2)c2ccc(F)cc2)cc1`, the TGI is 14.2 µM in assay [1]; above 27.8 µM in assay [2]; 38.6 µM in [3]; 52.3 µM in assay [4]; 7.95 µM in [5]; 19 µM in assay [6]. For the same compound, the TGI is 28.6 µM in assay [7]; 7.31 µM in assay [8]; 25 µM in [9]; 5.11 µM in assay [10]; 3.49 µM in assay [11]; 4.74 µM in assay [12]. Further, the TGI in [13] was 2.9 µM; in assay [14], 4.81 µM; in assay [15] it was 2.63 µM; in assay [16], 7.74 µM; in [17] it was 40.8 µM; in assay [18], 3.47 µM. Moreover, the TGI was determined as 5.74 µM in assay [19] and 11.4 µM in assay [20].
Turning to `O=c1oc2ccccc2cc1-c1cn2ccccc2n1`, the TGI in assay [1] was 26.3 µM; in assay [2], above 80.8 µM; in [3] it was 14.8 µM; in [4], 26.7 µM; in [5] it was 14.4 µM; in [6], 15.8 µM. Also, the TGI was found to be 20.5 µM in assay [7]; 6.37 µM in assay [8]; 6.49 µM in assay [9]; 7.02 µM in assay [10]; 13.8 µM in assay [11]; 20.5 µM in assay [12]. Also, the TGI in assay [13] is 28.9 µM; in assay [14], 19.8 µM; in [15], 17.7 µM; in assay [16] it was 10.6 µM; in assay [17], 53.5 µM; in assay [18], 30.1 µM. Also, the TGI worked out at 20.1 µM in [19] and 38.9 µM in assay [20].

The record behind these values is PubChem BioAssay (NCI).
